Assays:
SW620 = experiment: cells; parameters: species or system SW620; SW620/Ad300; MTT cytotoxicity assay, absorbance at 570 nm; conditions: Homo sapiens, SW-620, 72 h
Experimental: (§1) The MTT colorimetric assay was used to detect the sensitivity of cells to anticancer drugs. Cells were harvested with trypsin treatment. After washing with PBS, cells were resuspended in the culture media. Cells with a final concentration of 5 × 10^3 cells/well were seeded evenly into 96-well plates with 160 μL media. For the reversal experiments, SSJ compounds, verapamil, FTC or PAK104P (20 μL/well) was added followed by different concentrations of chemotherapeutic drugs (20 μL/well) into designated wells. After 72 h of incubation, 20 μL of MTT solution (5 mg/mL) was added to each well, and the plate was further incubated for 4 h, allowing viable cells to convert the yellow colored MTT into dark-blue formazan crystals. Subsequently, the medium was discarded, and 100 μL of dimethylsulfoxide (DMSO) was added into each well to dissolve the formazan crystals. The absorbance was determined at 570 nm by an OPSYS Microplate Reader from DYNEX Technologies Inc. (Chantilly, VA, USA) followed previously described protocol. The fold of resistance was calculated by dividing the IC50 (concentrations required to inhibit growth by 50%) of the MDR cells by that of the parental sensitive cells. Sipholane analogs (14 compounds) were first tested for cytotoxicity using MTT assay on colon cancer cells SW620 (drug-sensitive) and SW620/Ad300 (drug-resistant). […] Because these compounds were used at a concentration of 5 μM, which is the non-toxic concentration for all of them, they were considered to have no direct cytotoxic effect on cells. HEK293/pcDNA3.1, HEK/ABCB1, HEK/ABCG2 and HEK/ABCC1 cells were generated by transfecting the HEK293 cells with either empty pcDNA3.1 vector, ABCB1 expression vector, ABCG2 expression vector or ABCC1 expression vector respectively. HEK/ABCC1 was generated in the laboratory of Suresh V. Ambudkar (NCI, NIH, Bethesda, MD, USA). The human colon cancer cell line SW620 and doxorubicin-selected P-gp overexpressing SW620/Ad300 cell line were used for the reversal study. SW620, SW620/Ad300 and HEK/ABCG2 cells were also kindly provided by Susan Bates and Robert Robey (NCI, NIH, Bethesda, MD, USA). All the cell lines were grown as adherent monolayers in flasks with DMEM culture medium (GE Healthcare Life Sciences, Logan, UT, USA) supplemented with 10% bovine serum in a humidified incubator containing of 5% CO2 at 37 °C.

SW620/Ad300 = system: T1, SW620/Ad300; experiment: cells; parameters: MTT cytotoxicity assay, absorbance at 570 nm; conditions: Homo sapiens, SW620/AD300, 72 h
T1 construct: doxorubicin-selected, P-gp overexpressing
Experimental: as §1

[1] = biological target: T2, P-glycoprotein (P-gp/ABCB1) (Homo sapiens, UniProt P08183); experiment: Vanadate-sensitive ATPase stimulation in recombinant human P-gp membranes; supported by [3H]-paclitaxel accumulation/efflux in cells; type: biochemical; parameters: Recombinant human P-gp membrane
T2 sequence (P08183 whole entry): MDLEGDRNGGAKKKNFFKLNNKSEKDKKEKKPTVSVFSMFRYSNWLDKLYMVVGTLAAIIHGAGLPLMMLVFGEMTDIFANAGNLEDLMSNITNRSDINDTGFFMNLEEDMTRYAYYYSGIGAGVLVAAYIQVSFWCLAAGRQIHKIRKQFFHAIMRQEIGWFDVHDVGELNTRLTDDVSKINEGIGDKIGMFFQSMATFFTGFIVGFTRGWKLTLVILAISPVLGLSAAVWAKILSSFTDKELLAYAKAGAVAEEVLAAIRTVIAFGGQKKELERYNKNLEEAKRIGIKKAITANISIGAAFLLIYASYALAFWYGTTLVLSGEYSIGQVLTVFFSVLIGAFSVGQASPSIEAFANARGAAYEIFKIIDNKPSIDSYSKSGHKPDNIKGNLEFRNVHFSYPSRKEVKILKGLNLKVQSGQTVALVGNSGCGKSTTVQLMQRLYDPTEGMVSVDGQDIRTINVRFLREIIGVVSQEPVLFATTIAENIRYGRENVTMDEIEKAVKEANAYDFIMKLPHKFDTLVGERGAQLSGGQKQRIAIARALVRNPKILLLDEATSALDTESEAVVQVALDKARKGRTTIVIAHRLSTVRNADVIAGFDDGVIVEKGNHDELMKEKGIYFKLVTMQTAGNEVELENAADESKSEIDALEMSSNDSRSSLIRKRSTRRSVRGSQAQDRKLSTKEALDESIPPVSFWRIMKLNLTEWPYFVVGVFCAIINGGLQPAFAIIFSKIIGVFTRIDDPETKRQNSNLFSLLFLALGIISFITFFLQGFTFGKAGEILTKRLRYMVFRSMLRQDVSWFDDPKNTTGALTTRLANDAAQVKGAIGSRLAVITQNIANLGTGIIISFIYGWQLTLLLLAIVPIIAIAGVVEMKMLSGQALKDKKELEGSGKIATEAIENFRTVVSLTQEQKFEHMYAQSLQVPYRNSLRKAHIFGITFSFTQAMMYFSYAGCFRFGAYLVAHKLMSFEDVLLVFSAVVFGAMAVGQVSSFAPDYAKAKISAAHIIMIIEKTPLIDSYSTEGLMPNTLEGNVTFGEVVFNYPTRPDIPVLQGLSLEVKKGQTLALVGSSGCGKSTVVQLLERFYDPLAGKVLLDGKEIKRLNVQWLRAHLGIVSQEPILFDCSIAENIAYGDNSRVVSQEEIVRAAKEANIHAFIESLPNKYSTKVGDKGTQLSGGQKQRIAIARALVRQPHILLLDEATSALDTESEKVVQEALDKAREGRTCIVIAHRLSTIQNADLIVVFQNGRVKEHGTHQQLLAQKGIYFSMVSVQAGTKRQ

[2] = biological target: T2, P-glycoprotein (P-gp/ABCB1)

SMILES | IC50 (SW620) [µM] | IC50 (SW620/Ad300) [µM] | EC50 [1] [µM] | [3H]-paclitaxel accumulation and efflux, resistant versus parental cells [2]
CC1=CCC2C1CC=C(C)C(CCC1C(C)(O)CCC3OC(C)(C)C(OC(=O)c4ccncc4)CCC31C)C2(C)C (stereo not drawn) [SSJ33 (10)] | > 30 | > 30 |  | 
CC1=CCC2C(CCC2(C)O)C(C)(C)C1CCC1C(C)(O)CCC2OC(C)(C)C(OC(=O)c3ccccc3)CCC21C (stereo not drawn) [SSJ31 (8)] | > 30 | > 30 |  | 
CC1=CCC2C(CCC2(C)O)C(C)(C)C1CCC1C(C)(O)CCC2OC(C)(C)C(OC(=O)CCC(=O)O)CCC21C (stereo not drawn) [SSJ25 (2)] | > 30 | > 30 |  | 
CC1=CCC2C1CC=C(C)C(CCC1C(C)(O)CCC3OC(C)(C)C(OCc4ccccc4)CCC31C)C2(C)C (stereo not drawn) [SSJ37 (14)] | > 30 | > 30 |  | 
CC(=O)O[C@H]1CC[C@]2(C)[C@H](CC[C@@](C)(O)[C@H]2CC[C@H]2C(C)=CC[C@H]3[C@H](CC[C@]3(C)O)C2(C)C)OC1(C)C [SSJ26, sipholenol A-4-O-acetate] | > 30 | > 30 | 0.26 | 
CC(=O)OC1CCC2(C)C(CCC(C)(O)C2CCC2C(C)=CCC3C(CCC3(C)OC(C)=O)C2(C)C)OC1(C)C (stereo not drawn) [SSJ27 (4)] | > 30 | > 30 |  | 
CC1=CCC2C1CC=C(C)C(CCC1C(C)(O)CCC3OC(C)(C)C(O)CCC31C)C2(C)C (stereo not drawn) [SSJ28 (5)] | > 30 | > 30 |  | 
CC1=CCC2C(CCC2(C)O)C(C)(C)C1CCC1C(C)(O)CCC2OC(C)(C)C(OCc3ccccc3)CCC21C (stereo not drawn) [SSJ36 (13)] | > 30 | > 30 |  | 
CC(=O)O[C@H]1C(=O)[C@@]2(C)[C@H]([C@H](OC(=O)c3ccccc3)[C@]3(O)C[C@H](OC(=O)[C@H](O)[C@@H](NC(=O)c4ccccc4)c4ccccc4)C(C)=C1C3(C)C)[C@]1(OC(C)=O)CO[C@@H]1C[C@@H]2O [paclitaxel] |  |  |  | while the paclitaxel level significantly decreased in SW620/Ad300 drug-resistant cells, the levels of paclitaxel remained stable in parental SW620
CC(=O)OC1CCC2(C)C(CCC(C)(O)C2CCC2C(C)=CCC3C(C)=CCC3C2(C)C)OC1(C)C (stereo not drawn) [SSJ35 (12)] | > 30 | > 30 |  | 
CC1=CCC2C1CC=C(C)C(CCC1C(C)(O)CCC3OC(C)(C)C(OC(=O)CCC(=O)O)CCC31C)C2(C)C (stereo not drawn) [SSJ34 (11)] | > 30 | > 30 |  | 
CC1=CC[C@H]2[C@H](CC[C@]2(C)O)C(C)(C)[C@H]1CC[C@H]1[C@]2(C)CC[C@H](OC(=O)c3ccncc3)C(C)(C)O[C@H]2CC[C@@]1(C)O [SSJ32, sipholenol A-4-O-isonicotinate] | > 30 | > 30 | 0.6 | 
CC1=CCC2C1CC=C(C)C(CCC1C(C)(O)CCC3OC(C)(C)C(OC(=O)c4ccccc4)CCC31C)C2(C)C (stereo not drawn) [SSJ29 (6)] | > 30 | > 30 |  | 
